Consider eleven molecules from patent US20070249637A1, “Inhibitors Of Hepatitis C Virus Protease, And Compositions And Treatments Using The Same” (priority 2004, published 2007).

The target in data set [1] is T1, full-length NS3-NS4A enzyme (Hepatitis C virus genotype 1a, UniProt P27958).
T1 construct: 3 nM full-length NS3-NS4A enzyme
As to the kind of experiment: HCV protease assay (continuous FRET, full-length enzyme). The note with it: 3 nM full-length NS3-NS4A, 3 uM depsipeptide FRET substrate S1; competitive inhibition fit. The format is biochemical. How it is done: HCV protease activity and compound inhibition was monitored using a continuous, fluorescence resonance energy transfer (FRET) assay. Test compounds at various concentrations were added to assay buffer (50 mM MOPS pH 7.5, 50 mM NaCl, 20% glycerol, 0.025% Triton-X 100, 1 mM tris(2-carboxyethyl)phosphine) containing 3 uM depsipeptide FRET substrate S1 (Anaspec) (see Taliani et al. Analytical Biochemistry, 240, 60-67 (1996)) in a white, non-binding 96-well plate (Corning). The reaction was started by the addition of 3 nM full-length NS3-NS4A enzyme. The increase in fluorescence intensity following peptide cleavage was monitored using a Safire fluorescence plate reader (Tecan). The excitation and emission wavelengths were 340 nm and 500 nm, respectively. Inhibition constants (KI) were calculated by non-linear regression analysis using an equation derived for competitive inhibition.

Data set [2] deals with HCV dual reporter subgenomic replicon (B6b cell line). Put plainly: HCV dual reporter subgenomic replicon assay, Renilla luciferase (antiviral activity). The note with it: Hepatitis C virus, 72 h; 50% reduction of Renilla luciferase expression, 3 days incubation. The format is cell-based. How it is done: The compounds described herein were tested for antiviral activity utilizing a dual-reporter replicon assay as described in U.S. patent application Ser. No. 10/818,075 (the '075 application), filed Apr. 5, 2004. The disclosure of the '075 application is incorporated herein.
(§1) Cell-based antiviral activity was evaluated in the previously described HCV dual reporter subgenomic replicon system (the '075 application). With this system, the effects of a compound on both HCV replication and cell viability can be simultaneously determined by measuring the intracellular levels of two separate reporter proteins. The dicistronic selectable replicon contains the Renilla luciferase gene such that Renilla luciferase activity within stably-transfected cells serves as a marker of HCV replication. The firefly luciferase gene is stably integrated into and expressed by the Huh-7 host cells. Since firefly luciferase activity is dependent upon cellular transcription and translation, firefly luciferase activity serves as an indicator of cell viability.
(§2) The dual reporter selectable replicon cell line (B6b) was maintained in DMEM supplemented with 10% FBS, L-glutamine, non-essential amino acids, penicillin, streptomycin, and selection agents (200 ug/ml G418 and 6 ug/ml blastocidin). On the first day of the experiment, cells were trypsinized, washed, and diluted in medium lacking the selection agents. Cells were transferred to 96-well, black-walled, clear bottom plates at a density of 2×10^4 cells in 150 ul of medium per well. Cells were allowed to settle for 60 to 90 minutes while compounds were being prepared. Each compound was initially diluted to a 4× working stock (2.56% DMSO in tissue culture medium) that was then serially diluted nine times in half log increments in medium with 2.56% DMSO. Fifty microliters of each dilution were then added in triplicate to the plated cells in order to obtain final IX compound concentrations with 0.64% DMSO. Typical testing concentrations ranged from 320 uM to 10 nM. Control wells containing 0.64% DMSO without compound were also included on each plate.
(§3) After 3 days of incubation under humidity at 37° C. with 5% CO2, plates were microscopically examined for compound precipitation and cell death. Tissue culture medium was then aspirated and cells were lysed with 20 ul of 1× Passive Lysis Buffer (Promega, Madison, Wis.). Reporter activity was measured using a MicroBeta Jet 1450 (Perkin Elmer, Boston, Mass.) following sequential 50 ul additions of firefly and Renilla luciferase substrates as described in the manufacturers protocol (Promega). Luciferase activities were expressed as a percentage of the signals observed in the compound-free control wells. The amount of compound required to reduce Renilla luciferase expression by 50% is defined as the 50% effective concentration, or EC50. The amount of compound that reduces firefly luciferase expression by 50% is defined as the 50% cytotoxic concentration, or CC50. A therapeutic index (TI) is calculated by dividing the CC50 by the EC50.

A further data set can be described thus: in vitro. The format is cell-based. The note with it: human; 50% reduction of firefly luciferase expression, 3 days incubation; read-out: Replicon CC50. On the procedure: as §1, §2, §3
(In general: In antiviral work, replicon cells carry a viral genome segment that copies itself.)

T1 sequence (P27958 1027-1657): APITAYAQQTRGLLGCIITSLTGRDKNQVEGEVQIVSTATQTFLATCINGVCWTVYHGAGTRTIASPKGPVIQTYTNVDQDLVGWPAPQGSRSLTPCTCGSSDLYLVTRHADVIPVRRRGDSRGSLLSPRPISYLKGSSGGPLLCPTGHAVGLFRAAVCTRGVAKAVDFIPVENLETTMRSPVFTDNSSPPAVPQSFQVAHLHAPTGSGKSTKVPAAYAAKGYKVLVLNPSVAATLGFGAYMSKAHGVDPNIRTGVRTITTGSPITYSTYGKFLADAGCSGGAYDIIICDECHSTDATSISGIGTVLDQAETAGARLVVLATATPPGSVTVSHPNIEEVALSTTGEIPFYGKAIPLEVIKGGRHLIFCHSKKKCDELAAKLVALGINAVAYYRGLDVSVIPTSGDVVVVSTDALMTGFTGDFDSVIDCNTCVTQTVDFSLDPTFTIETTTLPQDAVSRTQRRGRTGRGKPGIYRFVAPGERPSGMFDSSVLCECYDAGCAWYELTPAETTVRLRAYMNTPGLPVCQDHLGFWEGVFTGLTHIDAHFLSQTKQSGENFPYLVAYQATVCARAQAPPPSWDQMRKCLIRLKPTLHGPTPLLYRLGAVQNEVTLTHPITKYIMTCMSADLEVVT
T1 sequence (P27958 1658-1711): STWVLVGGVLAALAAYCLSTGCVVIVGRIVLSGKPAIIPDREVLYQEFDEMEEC

In turn, `O=C(N[C@H]1CCCCC/C=C\[C@@H]2C[C@@]2(C(=O)O)NC(=O)[C@@H]2C[C@@H](Oc3cc(-c4ccccn4)nc4ccsc34)CN2C1=O)OC1CCCC1` [Example 11, (2R,12Z,13aS,14aR,16aS)-6-{[(cyclopentyloxy)carbonyl]amino}-5,16-dioxo-2-[(5-pyridin-2-ylthieno[3,2-b]pyridin-7-yl)oxy]-1,2,3,6,7,8,9,10,11,13a,14,15,16,16a-tetradecahydrocyclopropa[e]pyrrolo[1,2-a][1,4]diazacyclopentadecine-14a(5H)-carboxylic acid] had a Ki in data set [1] of 6.6 nM. Also, it took 110 nM to reach a half-maximal effect in data set [2] (EC50). For the same molecule, in the data set “in vitro”, the CC50 at 3 days was determined as 86000 nM.
The matching figures for `O=C(N[C@H]1CCCCC/C=C\[C@@H]2C[C@@]2(C(=O)O)NC(=O)[C@@H]2C[C@@H](Oc3cc(-c4ccccn4)nc4ccsc34)CN2C1=O)OC1CCC1` [Example 13, (2R,6S,12Z,13aS,14aR,16aS)-6-{[(Cyclobutyloxy)carbonyl]amino}-5,16-dioxo-2-[(5-pyridin-2-ylthieno[3,2-b]pyridin-7-yl)oxy]-1,2,3,6,7,8,9,10,11,13a,14,15,16,16a-tetradecahydrocyclopropa[e]pyrrolo[1,2-a][1,4]diazacyclopentadecine-14a(5H)-carboxylic acid]: 9 nM, 310 nM and 161000 nM.
In data set [1], `CC(C)(C)OC(=O)N[C@H]1CCCCC/C=C\[C@@H]2C[C@@]2(C(=O)O)NC(=O)[C@@H]2C[C@@H](Oc3cc(-c4ccccn4)nc4ccsc34)CN2C1=O` [Example 14, (2R,6S,12Z,13aS,14aR,16aS)-6-[(Tert-butoxycarbonyl)amino]-5,16-dioxo-2-[(5-pyridin-2-ylthieno[3,2-b]pyridin-7-yl)oxy]-1,2,3,6,7,8,9,10,11,13a,14,15,16,16a-tetradecahydrocyclopropa[e]pyrrolo[1,2-a][1,4]diazacyclopentadecine-14a(5H)-carboxylic acid] yielded a Ki of 8.9 nM. The same molecule registered an EC50 in data set [2] of 610 nM. The CC50 at 3 days in “in vitro” came to 92000 nM.
For `O=C(CC1CC1)N[C@H]1CCCCC/C=C\[C@@H]2C[C@@]2(C(=O)O)NC(=O)[C@@H]2C[C@@H](Oc3cc(-c4ccccn4)nc4ccsc34)CN2C1=O` [Example 16, (2R,6S,12Z,13aS,14aR,16aS)-6-[(Cyclopropylacetyl)amino]-5,16-dioxo-2-[(5-pyridin-2-ylthieno[3,2-b]pyridin-7-yl)oxy]-1,2,3,6,7,8,9,10,11,13a,14,15,16,16a-tetradecahydrocyclopropa[e]pyrrolo[1,2-a][1,4]diazacyclopentadecine-14a(5H)-carboxylic acid], in that order: 11 nM, 140 nM and 251000 nM.
The matching figures for `O=C(N[C@H]1CCCCC/C=C\[C@@H]2C[C@@]2(C(=O)O)NC(=O)[C@@H]2C[C@@H](Oc3nc(-c4ccccn4)nc4sccc34)CN2C1=O)OC1CCCC1` [Example 26, (2R,6S,12Z,13aS,14aR,16aS)-6-{[(Cyclopentyloxy)carbonyl]amino}-5,16-dioxo-2-[(2-pyridin-2-ylthieno[2,3-d]pyrimidin-4-yl)oxy]-1,2,3,6,7,8,9,10,11,13a,14,15,16,16a-tetradecahydrocyclopropa[e]pyrrolo[1,2-a][1,4]diazacyclopentadecine-14a(5H)-carboxylic acid]: 8.5 nM, 100 nM and 117000 nM.
For `O=C(N[C@H]1CCCCC/C=C\[C@@H]2C[C@@]2(C(=O)O)NC(=O)[C@@H]2C[C@@H](Oc3nc(-c4ccccn4)nc4sccc34)CN2C1=O)OC1CCC1` [Example 28, (2R,6S,12Z,13aS,14aR,16aS)-6-{[(cyclobutyloxy)carbonyl]amino}-5,16-dioxo-2-[(2-pyridin-2-ylthieno[2,3-d]pyrimidin-4-yl)oxy]-1,2,3,6,7,8,9,10,11,13a,14,15,16,16a-tetradecahydrocyclopropa[e]pyrrolo[1,2-a][1,4]diazacyclopentadecine-14a(5H)-carboxylic acid], in that order: 21 nM, 420 nM and 59000 nM.
Take `CC(C)(C)OC(=O)N[C@H]1CCCCC/C=C\[C@@H]2C[C@@]2(C(=O)O)NC(=O)[C@@H]2C[C@@H](Oc3nc(-c4ccccn4)nc4sccc34)CN2C1=O` [Example 29, (2R,6S,12Z,13aS,14aR,16aS)-6-[(tert-butoxycarbonyl)amino]-5,16-dioxo-2-[(2-pyridin-2-ylthieno[2,3-d]pyrimidin-4-yl)oxy]-1,2,3,6,7,8,9,10,11,13a,14,15,16,16a-tetradecahydrocyclopropa[e]pyrrolo[1,2-a][1,4]diazacyclopentadecine-14a(5H)-carboxylic acid]: the affinity in data set [1], expressed as Ki, was 42 nM. Besides, a half-maximal effect in data set [2] (EC50) was put at 420 nM. The CC50 at 3 days in the data set “in vitro” was found to be 13000 nM.
In data set [1], `O=C(CC1CC1)N[C@H]1CCCCC/C=C\[C@@H]2C[C@@]2(C(=O)O)NC(=O)[C@@H]2C[C@@H](Oc3nc(-c4ccccn4)nc4sccc34)CN2C1=O` [Example 31, (2R,6S,12Z,13aS,14aR,16aS)-6-[(Cyclopropylacetyl)amino]-5,16-dioxo-2-[(2-pyridin-2-ylthieno[2,3-d]pyrimidin-4-yl)oxy]-1,2,3,6,7,8,9,10,11,13a,14,15,16,16a-tetradecahydrocyclopropa[e]pyrrolo[1,2-a][1,4]diazacyclopentadecine-14a(5H)-carboxylic acid] yielded a Ki of 39 nM. Further, the concentration giving a half-maximal response (EC50) in data set [2] amounted to 250 nM. Further, the CC50 at 3 days in the data set “in vitro” worked out at 168000 nM.
The matching figures for `O=C(N[C@H]1CCCCC/C=C\[C@@H]2C[C@@]2(C(=O)O)NC(=O)[C@@H]2C[C@@H](Oc3nc(-c4ccccn4)nc4ccsc34)CN2C1=O)OC1CCCC1` [Example 41, (2R,6S,12Z,13aS,14aR,16aS)-6-{[(cyclopentyloxy)carbonyl]amino}-5,16-dioxo-2-[(2-pyridin-2-ylthieno[3,2-d]pyrimidin-4-yl)oxy]-1,2,3,6,7,8,9,10,11,13a,14,15,16,16a-tetradecahydrocyclopropa[e]pyrrolo[1,2-a][1,4]diazacyclopentadecine-14a(5H)-carboxylic acid]: 5.2 nM, 34 nM and 87000 nM.
In data set [1], `O=C(N[C@H]1CCCCC/C=C\[C@@H]2C[C@@]2(C(=O)O)NC(=O)[C@@H]2C[C@@H](Oc3nc(-c4ccccn4)nc4ccsc34)CN2C1=O)OC1CCC1` [Example 43, (2R,6S,12Z,13aS,14aR,16aS)-6-{[(cyclobutyloxy)carbonyl]amino}-5,16-dioxo-2-[(2-pyridin-2-ylthieno[3,2-d]pyrimidin-4-yl)oxy]-1,2,3,6,7,8,9,10,11,13a,14,15,16,16a-tetradecahydrocyclopropa[e]pyrrolo[1,2-a][1,4]diazacyclopentadecine-14a(5H)-carboxylic acid] had a Ki of 20 nM. In data set [2], this molecule displayed an EC50 of 190 nM. For the same molecule, in “in vitro”, the CC50 at 3 days is more than 320000 nM.
With `CC(C)(C)OC(=O)N[C@H]1CCCCC/C=C\[C@@H]2C[C@@]2(C(=O)O)NC(=O)[C@@H]2C[C@@H](Oc3nc(-c4ccccn4)nc4ccsc34)CN2C1=O` [Example 44, (2R,6S,12Z,13aS,14aR,16aS)-6-[(Tert-butoxycarbonyl)amino]-5,16-dioxo-2-[(2-pyridin-2-ylthieno[3,2-d]pyrimidin-4-yl)oxy]-1,2,3,6,7,8,9,10,11,13a,14,15,16,16a-tetradecahydrocyclopropa[e]pyrrolo[1,2-a][1,4]diazacyclopentadecine-14a(5H)-carboxylic acid], the inhibitory constant (Ki) in data set [1] worked out at 20 nM. This molecule gave an EC50 in data set [2] of 150 nM. Further, in the data set “in vitro”, the CC50 at 3 days is 159000 nM.

One may read the Ki as a dissociation constant, usually derived from enzyme kinetics or from competition with a known ligand. The EC50 is the concentration giving half of the maximal effect. A low value points to a more potent agent. For orientation: CC50 means the concentration giving 50% cytotoxicity.
